Earlier results in US9782416B2, “Pharmaceutical formulations of potassium ATP channel openers and uses thereof” (Essentialis, Inc., priority 2004, dated 2017).

Key:
Kir6.2/SUR1 channel = Kir6.2/SUR1 channel (Rattus norvegicus, UniProt Q09429); details: Dabrowski et al. 2002
KATP channel = target: T1, KATP channel (Homo sapiens, UniProt Q09428); details: patients with hyperinsulinism and patients with pancreatic insulinoma
T1 construct: host or cells: patients with hyperinsulinism or pancreatic insulinoma (endogenous channel)
T1 sequence (Q09428 whole entry): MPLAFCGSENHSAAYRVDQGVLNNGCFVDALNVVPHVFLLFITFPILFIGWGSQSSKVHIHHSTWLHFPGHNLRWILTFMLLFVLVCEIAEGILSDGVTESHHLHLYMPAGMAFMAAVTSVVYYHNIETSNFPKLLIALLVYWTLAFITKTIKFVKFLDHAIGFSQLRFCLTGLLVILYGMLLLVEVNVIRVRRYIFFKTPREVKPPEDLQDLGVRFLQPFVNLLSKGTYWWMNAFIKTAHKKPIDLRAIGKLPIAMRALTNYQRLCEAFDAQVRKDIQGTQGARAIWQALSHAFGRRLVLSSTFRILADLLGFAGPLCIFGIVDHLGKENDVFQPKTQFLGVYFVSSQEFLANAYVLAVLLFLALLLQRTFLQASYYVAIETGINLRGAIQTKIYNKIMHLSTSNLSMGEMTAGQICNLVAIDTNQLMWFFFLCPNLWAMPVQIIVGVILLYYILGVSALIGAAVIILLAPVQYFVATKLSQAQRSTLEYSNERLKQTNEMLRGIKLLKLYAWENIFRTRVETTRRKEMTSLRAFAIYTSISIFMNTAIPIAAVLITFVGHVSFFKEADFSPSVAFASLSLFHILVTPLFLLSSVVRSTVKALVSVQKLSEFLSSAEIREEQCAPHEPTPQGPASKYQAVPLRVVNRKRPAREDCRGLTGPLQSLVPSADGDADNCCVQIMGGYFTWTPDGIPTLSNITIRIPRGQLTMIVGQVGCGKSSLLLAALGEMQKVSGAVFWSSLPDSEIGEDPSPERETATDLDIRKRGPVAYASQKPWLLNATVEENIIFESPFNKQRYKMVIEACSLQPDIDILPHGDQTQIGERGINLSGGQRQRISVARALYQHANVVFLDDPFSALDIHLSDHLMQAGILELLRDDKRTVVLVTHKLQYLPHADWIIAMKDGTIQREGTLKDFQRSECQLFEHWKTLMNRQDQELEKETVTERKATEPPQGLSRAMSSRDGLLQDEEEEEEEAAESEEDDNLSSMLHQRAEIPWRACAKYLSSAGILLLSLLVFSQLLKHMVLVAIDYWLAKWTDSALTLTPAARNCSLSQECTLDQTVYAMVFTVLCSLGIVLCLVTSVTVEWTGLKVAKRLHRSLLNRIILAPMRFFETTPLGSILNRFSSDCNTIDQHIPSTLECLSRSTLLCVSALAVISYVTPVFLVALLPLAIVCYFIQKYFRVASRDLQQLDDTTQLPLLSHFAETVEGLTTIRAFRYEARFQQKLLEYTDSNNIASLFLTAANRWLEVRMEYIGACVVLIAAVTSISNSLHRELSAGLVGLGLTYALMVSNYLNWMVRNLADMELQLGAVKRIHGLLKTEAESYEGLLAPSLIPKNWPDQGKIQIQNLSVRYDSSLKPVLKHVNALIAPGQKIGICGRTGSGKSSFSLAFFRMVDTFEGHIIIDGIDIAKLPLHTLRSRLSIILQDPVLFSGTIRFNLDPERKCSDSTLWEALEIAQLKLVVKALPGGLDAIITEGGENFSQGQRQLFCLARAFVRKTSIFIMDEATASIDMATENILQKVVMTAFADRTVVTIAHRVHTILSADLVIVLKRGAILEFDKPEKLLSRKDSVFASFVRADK
T1 sequence (Q14654 whole entry partner): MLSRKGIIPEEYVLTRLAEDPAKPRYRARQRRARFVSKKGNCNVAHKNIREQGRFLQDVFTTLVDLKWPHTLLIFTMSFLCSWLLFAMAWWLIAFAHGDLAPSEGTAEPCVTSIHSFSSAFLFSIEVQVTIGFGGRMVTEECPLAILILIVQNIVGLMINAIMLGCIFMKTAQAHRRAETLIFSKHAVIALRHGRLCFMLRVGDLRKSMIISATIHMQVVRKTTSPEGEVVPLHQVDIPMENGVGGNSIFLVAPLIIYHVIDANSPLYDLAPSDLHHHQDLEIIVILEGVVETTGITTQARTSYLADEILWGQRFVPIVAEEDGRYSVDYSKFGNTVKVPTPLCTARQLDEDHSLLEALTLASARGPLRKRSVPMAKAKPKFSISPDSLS

Sequence of Kir6.2/SUR1 channel (Q09429 whole entry): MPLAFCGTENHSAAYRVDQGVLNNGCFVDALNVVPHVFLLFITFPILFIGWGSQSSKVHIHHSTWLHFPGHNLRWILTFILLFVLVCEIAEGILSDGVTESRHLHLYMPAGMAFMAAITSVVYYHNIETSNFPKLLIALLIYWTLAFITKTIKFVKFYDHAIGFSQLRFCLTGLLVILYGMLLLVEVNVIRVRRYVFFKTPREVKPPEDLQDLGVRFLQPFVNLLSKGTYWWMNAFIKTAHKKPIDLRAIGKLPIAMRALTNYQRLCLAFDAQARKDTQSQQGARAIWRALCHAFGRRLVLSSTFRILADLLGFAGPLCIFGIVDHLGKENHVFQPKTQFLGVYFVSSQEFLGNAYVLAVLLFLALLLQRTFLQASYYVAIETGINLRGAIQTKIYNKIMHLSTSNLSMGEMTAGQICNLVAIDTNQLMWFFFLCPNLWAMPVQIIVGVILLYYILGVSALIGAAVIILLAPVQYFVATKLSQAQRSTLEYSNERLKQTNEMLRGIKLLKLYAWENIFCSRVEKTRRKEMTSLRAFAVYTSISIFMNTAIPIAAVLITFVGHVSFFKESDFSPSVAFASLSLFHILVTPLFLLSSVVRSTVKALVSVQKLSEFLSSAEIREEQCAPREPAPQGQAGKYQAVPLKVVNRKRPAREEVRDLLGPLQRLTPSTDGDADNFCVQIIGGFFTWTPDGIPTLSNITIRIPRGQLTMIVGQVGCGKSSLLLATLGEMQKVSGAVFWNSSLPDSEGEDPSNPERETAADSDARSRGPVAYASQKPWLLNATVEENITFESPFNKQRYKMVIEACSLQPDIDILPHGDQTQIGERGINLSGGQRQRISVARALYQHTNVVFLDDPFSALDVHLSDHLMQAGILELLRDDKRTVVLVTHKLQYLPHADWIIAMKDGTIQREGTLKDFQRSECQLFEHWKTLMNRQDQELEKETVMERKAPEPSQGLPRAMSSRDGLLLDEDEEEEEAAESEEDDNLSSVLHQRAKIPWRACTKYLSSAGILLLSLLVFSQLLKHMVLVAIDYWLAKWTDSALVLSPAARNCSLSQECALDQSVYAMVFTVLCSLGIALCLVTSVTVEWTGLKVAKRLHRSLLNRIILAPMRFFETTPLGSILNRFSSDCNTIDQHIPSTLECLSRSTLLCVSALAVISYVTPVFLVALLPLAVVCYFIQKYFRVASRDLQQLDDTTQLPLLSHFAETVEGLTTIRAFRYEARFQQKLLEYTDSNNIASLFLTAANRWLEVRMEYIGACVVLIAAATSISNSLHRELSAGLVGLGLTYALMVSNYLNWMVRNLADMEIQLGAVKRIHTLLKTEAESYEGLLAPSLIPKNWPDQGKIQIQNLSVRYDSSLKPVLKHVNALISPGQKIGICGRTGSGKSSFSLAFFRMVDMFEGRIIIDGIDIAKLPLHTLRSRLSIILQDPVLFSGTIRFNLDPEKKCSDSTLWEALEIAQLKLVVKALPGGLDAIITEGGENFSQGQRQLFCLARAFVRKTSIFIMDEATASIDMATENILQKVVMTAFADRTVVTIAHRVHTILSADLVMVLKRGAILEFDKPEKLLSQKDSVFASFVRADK
Sequence of Kir6.2/SUR1 channel (Q61743 whole entry partner): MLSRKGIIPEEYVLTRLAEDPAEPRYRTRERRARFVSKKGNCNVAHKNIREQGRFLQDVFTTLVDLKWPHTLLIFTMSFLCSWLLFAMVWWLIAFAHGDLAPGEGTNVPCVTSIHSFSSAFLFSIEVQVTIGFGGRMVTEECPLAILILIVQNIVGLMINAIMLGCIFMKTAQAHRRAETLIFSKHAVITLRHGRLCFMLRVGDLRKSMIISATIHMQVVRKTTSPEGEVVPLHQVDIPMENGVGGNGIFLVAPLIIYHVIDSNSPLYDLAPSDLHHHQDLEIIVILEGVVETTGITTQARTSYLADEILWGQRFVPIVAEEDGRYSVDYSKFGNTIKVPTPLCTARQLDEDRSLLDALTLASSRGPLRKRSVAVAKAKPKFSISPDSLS

Structure (SMILES)	channel opener selectivity (Kir6.2/SUR1 channel)	KATP channel activator activity (KATP channel)
COc1ccc2c(c1)S(=O)(=O)N=C(NC(C)C)N2 [3-isopropylamino-7-methoxy-4H-1,2,4,-benzothiadiazine 1,1-dioxide]	selective Kir6.2/SUR1 channel opener	–
CC(C)N=C1Nc2cc(Cl)c(Cl)cc2S(=O)(=O)N1 [BPDZ 154]	–	effective KATP channel activator
